Like-named read-outs stand apart in the source and are kept apart here.
Legend:
érythème aux U.V. = assay: Protection against early inflammation, UV erythema method (Winder et al.); assay type: in vivo; conditions: cobaye albinos, Administration P.O, dose that moderates erythema intensity by 50 %; for ED50: Cavia porcellus, po, read-out: Erythème aux U.V. DE.50
Text: D - L'activité protectrice vis-à-vis de l'inflammation précoce a été mise en évidence sur le cobaye albinos selon la méthode de l'érythème aux U.V. (WINDER et Col., Arch. Int. Pharmacodyn. 1958, 116, 261). La dose efficace 50 est la dose qui.donnée P.O., modère de 50 % l'intensité de l'érythème induit par exposition à un rayonnement U.V. de la surface dorsale épilée des cobayes.

[1] = tested on: contractions douloureuses; assay: Analgesic activity, acetic acid writhing test (Koster et al.); assay type: in vivo; conditions: souris, Administration P.O, dose that reduces the number of painful contractions by 50 %
Text: B - L'activité analgésique a été déterminée chez 1a souris par la méthode de KOSTER et Col. (Fed. Proc. 1959, 18, 412). On détermine la dose efficace 50, dose qui administrée P.O. diminue de 50 % le nombre des contractions douloureuses déclenchées par l'injection in- trapéritonéale d'une solution diluée d'acide acétique.

Solubility in water = assay type: physicochemical
rat = assay: in vivo
Text: (§1) A - La DL 50 a été déterminée chez la souris et le rat par les voies orale et I.V., selon MILLER et TAINTER (Proc. Soc. Exp. Biol. Medecine, 1944, 57, 261.

in vivo = conditions: in vivo
Text: as §1

souris = assay: in vivo; conditions: P.O.
Text: as §1

oedème à la carragénine = assay: Anti-inflammatory activity, carrageenan oedema test (Winter et al.); assay type: in vivo; conditions: Administration P.O, dose that inhibits the oedema by 30 %; for ED30: Rattus norvegicus, po, read-out: Oedème à la carra-génine DE.30
Text: C - L'activité anti-inflammatoire a été démontrée par le test de l'oedème à la carragénine, selon WINTER et Col. (Proc. Exp. Biol. Med., 1962, 111, 544. On recherche .la protection que confère le traitement par le pro- duit administré P.O. au rat, vis à vis d'un oedème déclenché par injection sous la voûte plantaire, d'une suspension de carragénine. La dose efficace 30 est celle qui inhibe l'oedème de 30 %.

SMILES | Erythème aux U.V. DE.50 (érythème aux U.V.) | Acide acétique DE.50 [1] [mg/kg] | solubilité dans l'eau (Solubility in water) | DL. 50 rat P.O. (rat) [mg/kg] | LD50 (in vivo; mouse, iv, souris, I.V., read-out: DL. 50 souris I.V.) [mg/kg] | DL. 50 souris P.O. (souris) [mg/kg] | Oedème à la carra-génine DE.30 (oedème à la carragénine; rat) [mg/kg] | ED50 (érythème aux U.V.) [mg/kg] | LD50 (in vivo; mouse, po, souris, P.O., read-out: DL. 50 souris P.O.) [mg/kg] | LD50 (in vivo; rat, po, P.O., read-out: DL. 50 rat P.O.) [mg/kg] | ED30 (oedème à la carragénine) [mg/kg] | ED50 ([1]; Mus musculus, po, read-out: Acide acétique DE.50) [mg/kg]
CC(C(=O)O)c1ccc(-n2cccc2)c(N)c1 (racemic) [Composé C, sel de (±) lysine de l'acide (±) amino-3 (pyrrolyl-l')-4 α- méthyl phénylacétique] | 4,8 mg/kg | 42 | parfaite solubilité dans l'eau | 697 ± 103 | > 1600 | >3200 | 15 | – | – | – | – | –
CC(C(=O)O)c1ccc(-n2cccc2)c(N)c1 (racemic) [Composé B, acide (±) amino-3 (pyrrolyl-1') -4α- méthyl phényl acétique] | – | 19 | – | – | – | – | – | 4.7 | 3000 | 392 ± 50 | 12 | –
CCCCC1C(=O)N(c2ccccc2)N(c2ccccc2)C1=O [Phénylbuta-zone, butyl-4 diphényl-1,2 pyrazolidine dione-3,5] | – | – | – | – | – | – | – | 3.7 | – | – | 35 | 93

— patent EP0016703A1, “Lysine salt of (+/-) 3-amino-4-(1-pyrrolyl)-alpha-methylphenyl-acetic acid, process for its preparation and pharmaceutical composition containing it” (LIPHA, LYONNAISE INDUSTRIELLE PHARMACEUTIQUE, priority 1979, dated 1980)
